Key:
[1] = in vivo; details: rat, po
[2] = in vivo; details: rat
[3] = physchem; details: buffer, pH 7.4
[4] = species: Rattus norvegicus; details: in vivo, po, BLD = below limit of detection
[5] = clinical; details: human, plasma
[6] = clinical; details: human, in vivo, po, 30 mg

Compound	bioavailability [1] [%]	Vd [2] [L/kg]	logD [3]	F [4]	AUC [5] [ng·h/mL]	Cmax at 1.2 h [6] [ng/mL]
Nc1cnc2nnn(Cc3ccc4ncccc4c3)c2n1	75	0.95	1.23			
N[C@@H]1CCN(c2cnc3nnn(Cc4ccc5ncccc5c4)c3n2)C1		3.6		BLD		
OCCn1cc(-c2cnc3nnn(Cc4ccc5ncccc5c4)c3n2)cn1 [PF-04217903]	71	1.6	1.38			
CS(=O)(=O)O.OCCn1cc(-c2cnc3nnn(Cc4ccc5ncccc5c4)c3n2)cn1					810	240
c1cnc2ccc(Cn3nnc4ncc(-c5cnn(C6CCNCC6)c5)nc43)cc2c1		27		BLD		

From ChEMBL document CHEMBL2169886 (J Med Chem, 2012)
